Measured values from PubChem BioAssay AID504703 (Southern Research Specialized Biocontainment Screening …, 2011).
Where “and” joins values, the source holds several entries; their conditions need not be identical. Identical values can stand only once. Calls of active or inactive are those of the source. The rule behind the calls is not given here.

Test system: M. tuberculosis H37Rv growth inhibition with meropenem
Assay: M. tuberculosis growth inhibition, H37Rv, set 2, dose response (AID 504703);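 note: growth ran 7 days at 37 °C then overnight with Alamar Blue before reading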
[1] = M. tuberculosis H37Rv growth inhibition, measured here: IC50 without meropenem
[2] = M. tuberculosis H37Rv growth inhibition, measured here: IC90 without meropenem
[3] = measured here: IC90 with meropenem

Compound | IC50 [1] | IC90 [2] [µM] | IC50 | IC90 [3] [µM]
Cc1ccccc1OCC(=O)Nc1ncn[nH]1 | > 25 µM | > 25 | – | –
O=C(CSc1n[nH]c(=O)n1C1CC1)c1ccc2c(c1)OCCO2 | 10.8 µM | > 25 | 4.57 µM (inactive) | > 25
Cc1onc(-c2c(Cl)cccc2Cl)c1/C(N)=N/OC(=O)C1CC1 | 14.7 µM | > 25 | – | > 25
Cc1cc(C)c(OCC(=O)Nc2nc3ccccc3s2)c(Cl)c1 | > 25 µM | > 25 | – | –
O=C(COc1ccc(Cl)cc1)Nc1nc2ccc(F)cc2s1 | > 25 µM | > 25 | – | –
Cc1ccccc1OCC(=O)Nc1nnn(C)n1 | > 25 µM | > 25 | – | –
O=C(COC(=O)C1CC1)c1c[nH]c2ccccc12 | 1.15 µM and 2.08 µM | > 6.25 | – | > 25
Cc1cccc(C)c1OCC(=O)Nc1nc2ccccc2s1 | > 25 µM | > 25 | – | –
COc1ccc(C(=O)Nc2ccc3nc(N4CCCCC4)cc(C)c3c2)c(OC)c1 | > 25 µM | > 25 | 17.6 µM (inactive) | > 25
CCCN1CC(O)=C(c2nc3ccccc3s2)C1=N | > 25 µM | > 25 | – | –
COc1ccc2nc(NC(=O)COc3ccccc3)sc2c1 | > 25 µM | > 25 | – | –
CN(NC(=O)c1c(Cl)cccc1Cl)c1cccc(Cl)n1 | > 25 µM | > 25 | 15.5 µM (inactive) | > 25
COC(=O)c1c(C)[nH]c2ccc(F)cc12 | > 25 µM | > 25 | – | –
CC(C)(C)c1ccc(OCC(=O)Nc2nc3ccccc3s2)cc1 | > 25 µM | > 25 | – | –
COc1cccc(NC(=O)C2CC2)c1 | > 25 µM | > 25 | – | > 25
COc1ccc2nc(NC(=O)COc3ccc(C)cc3)sc2c1 | > 25 µM | > 25 | – | –
Cc1cc2cc(Cl)ccc2n1-c1ccccc1 | > 25 µM | > 25 | – | –
O=C(OC(C(=O)Nc1ccc(Cl)cc1C(F)(F)F)c1ccccc1)C1=COCCO1 (stereo unspecified) | 16.9 µM | > 25 | – | > 25
COc1ccc2nc(NC(=O)COc3c(C)cc(C)cc3C)sc2c1 | > 25 µM | > 25 | – | –
Cc1ccc(OCC(=O)Nc2cccc3ncccc23)c(C)c1 | > 25 µM | > 25 | – | –
Oc1ccc2[nH]ccc2c1 | > 25 µM | > 25 | – | –

Compound | IC50 [1] | IC90 [2] [µM] | IC50 | IC90 [3] [µM]
S=C(Nc1ccccc1)Nc1ccc(Cl)cn1 | > 18.8 µM and 17.3 µM | > 25 | – | > 25
N/C(=N\c1nc2cc(Cl)ccc2o1)NC(=O)c1ccccc1 | > 25 µM | > 25 | – | –
O=C(CC12CC3CC(CC(C3)C1)C2)NCc1ccc(F)cc1 | > 25 µM | > 25 | – | –
CCOc1ccc2c(c1)cc(C)n2-c1ccccc1 | > 25 µM | > 25 | 11.5 µM (inactive) | > 25
Cc1ccc(OCC(=O)Nc2cccc3ccccc23)c(C)c1 | > 25 µM | > 25 | 20.5 µM (inactive) | > 25
COc1ccc2c(c1)c(C(C)=O)c(C)n2-c1ccccc1 | > 25 µM | > 25 | – | > 18.8
Cc1ccc(OCC(=O)Nc2ccc3c4c(cccc24)CC3)c(C)c1 | > 25 µM | > 25 | – | > 25
N/C(=N\c1nc2ccccc2o1)NC(=O)c1ccccc1Br | 8.26 µM | > 25 | – | > 25
CCOc1ccc2[nH]ccc2c1 | > 25 µM | > 25 | – | –
O=C(COc1ccc2c3c(c(=O)oc2c1)CCC3)Nc1nc2ccccc2[nH]1 | > 25 µM | > 25 | – | –
COc1ccc(Cl)cc1C(=O)Nc1nc2ccccc2[nH]1 | > 25 µM | > 25 | 16.2 µM (inactive) | > 25
CC(=O)c1c(C)n(-c2ccccc2)c2ccc(OC(C)C)cc12 | > 25 µM | > 25 | – | –
Cc1cccc(C)c1OCC(=O)Nc1nc2ccc(Cl)cc2s1 | > 25 µM | > 25 | – | –
Cc1cc2cc(Cl)ccc2[nH]1 | > 25 µM | > 25 | – | –
c1ccc(OCc2nnc(-c3ccccc3)o2)cc1 | > 18.8 µM and 15.3 µM | > 25 | 15 µM (inactive) | > 25
Cc1ccccc1OCC(=O)Nc1ccccc1N1CCCCC1 | > 25 µM | > 25 | – | > 25
CC(C)(Oc1ccc(Cl)cc1)C(=O)Nc1nc2ccccc2s1 | > 25 µM | > 25 | – | –
Cc1ccc(OCC(=O)Nc2nc3ccc(F)cc3s2)cc1 | > 25 µM | > 25 | – | –
CCOc1ccc2nc(NC(=O)C(C)Oc3ccccc3F)sc2c1 (stereo unspecified) | > 25 µM | > 25 | – | –
O=C(Cc1ccccc1Cl)Nc1nc2ccccc2[nH]1 | > 18.8 µM and 16.4 µM | > 25 | 18.9 µM (inactive) | > 25
CCOc1ccc2c(c1)c(C(C)=O)c(C)n2-c1ccccc1Cl | > 25 µM | > 25 | 13.6 µM (inactive) | > 25
